Key:
[1] = Solubility in water; assay type: physicochemical
Experimental: Solubility in water: 11 g/L (25° C.); 70 g/L (95° C.)

[2] = Decomposition by TGA (thermogravimetric analysis); assay type: physicochemical; conditions: for TGA onset [° C.]: overview table
Experimental: Melamine hydrogenphenylphosphonate (MPPO) from example 1 (10.000 g, 0.04 mol) is tempered in a glass tube at 300° C./5·10^−1 mbar for 2 h and additional for 22 h. The mass balance is monitored for the residual by gravimetrically methods. The obtained product is characterized by phosphorous content, 1,3,5-triazine components and thermogravimetry.
Based on the results of the thermo gravimetric analysis (TGA) of the compounds in examples A1-A5 one can conclude that the condensation of melamine hydrogene phenyphosphonate occurs in a two step mode. […] The mode of condensation therefore may be controlled in a balanced thermometric and stoichiometric approach. According to example A2-A4 in a temperature range of 280-300° C. melam formation is favoured. However, other temperature profiles could be more suitable for other stoichiometric ratios. The increasing phosphorous content in the compounds of example A2-A3 in comparison to example A5 points to the condensation of phenylphosphonic anions.

Melamine Phenylhydrogenphosphonate (MPPO) [Example A1]
Solubility in water ([1]; 25° C.): 11 mg/mL | Solubility in water ([1]; 95° C.): 70 mg/mL | Decomposition by TGA: onset [2]: 277 °C | TGA Mass loss at T ° C. [%] ([2]; T = 320 ° C.): 320 [−10%] | Decomposition by TGA: mass loss at onset ([2]; at onset 277° C.): −12% | TGA onset [° C.] [2]: 277 °C

Melam Phenylhydrogenphosphonate [Example A5]
Decomposition by TGA: onset [2]: 345 °C | TGA Mass loss at T ° C. [%] ([2]; T = 372 ° C.): 372 [−15%] | Decomposition by TGA: mass loss at onset ([2]; at onset 345° C., 1 molÄq H2O): −4.5% | Decomposition by TGA: mass loss at onset ([2]; at onset 372° C.): −55% | TGA onset [° C.] [2]: 345 °C | Decomposition by TGA: onset (second step) ([2]; second onset printed): 372 °C

— US20130338264A1, “CONDENSATION PRODUCTS OF MELAMINE AND PHENYLPHOSPHONIC ACID AND THEIR USE AS FLAME RETARDANTS” (BASF SE, priority 2011, published 2013)
